Literature values as cited in patent US9877929B2, “Topical vitamin D and ubiquinol oral supplement compositions” (Premier Dental Products Company, priority 2011, dated 2018).

Columns and labels:
[1] = stable UBIQUINOL supplement

SMILES: COc1c(O)c(C)c(C/C=C(\C)CC/C=C(\C)CC/C=C(\C)CC/C=C(\C)CC/C=C(\C)CC/C=C(\C)CC/C=C(\C)CC/C=C(\C)CC/C=C(\C)CCC=C(C)C)c(O)c1OC [UBIQUINOL]
- time required to reach peak concentration (absorption from the gastrointestinal tract): approximately 6 hours
- time to steady-state concentrations (oral treatment): two
- peak blood values (orally, 150 mg per day of UBIQUINOL in a softgel, within 28 days): 3.84 µg/mL
- water solubility [1]: less than 0.1 mg/ml
